# In publication PMC11310081, “Deep-learning-enabled antibiotic discovery through molecular de-extinction” (Nature Biomedical Engineering, 2024):
# Peptide text beside a SMILES is read from it.
# Legend:
# A. baumannii ATCC 19606 [1] = assay: Skin abscess infection mouse model; assay type: in vivo, CD-1 mice; details: for bacterial count, skin abscess (Panel 6b): CD-1 mice
# How it was run: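 Female CD-1 mice (6 weeks) with needle skin abrasions received 20 μl of 10^6 c.f.u. ml^−1 A. baumannii ATCC 19606, and 2 h later the peptides were applied topically in water at their MIC. Skin was excised at 2 and 4 days post infection, homogenized and plated on MacConkey agar for c.f.u. counts. Six mice per group, compared with untreated controls by ANOVA/Dunnett on log10 data.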
# [2] = system: 11 clinically relevant bacterial pathogens; assay type: cell-based
# How it was run: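 Log-phase cells (OD600 0.3–0.5), 37 °C; peptides 1–64 μmol l^−1 in broth microdilution; OD600 read-out; n = 3 biological replicates.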
# A. baumannii ATCC 19606 [3] = assay: Neutropenic thigh infection mouse model; assay type: in vivo, CD-1 mice; details: neutropenic CD-1 mice
# How it was run: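 Female CD-1 mice made neutropenic with cyclophosphamide 150 mg kg^−1 i.p. twice, 72 h apart, then infected intramuscularly in the thigh with 10^6 c.f.u. ml^−1 A. baumannii. Peptides in water given i.p. 2 h post-infection; thigh c.f.u. counted on MacConkey agar at days 2 and 4, six mice per group.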
# [4] = A. baumannii ATCC 19606, day 2, replicate 1
# [5] = A. baumannii ATCC 19606, day 2, replicate 2
# [6] = A. baumannii ATCC 19606, day 2, replicate 3
# [7] = A. baumannii ATCC 19606, day 2, replicate 4
# [8] = A. baumannii ATCC 19606, day 2, replicate 5
# [9] = A. baumannii ATCC 19606, day 2, replicate 6
# [10] = A. baumannii ATCC 19606, day 4, replicate 1
# [11] = A. baumannii ATCC 19606, day 4, replicate 2
# [12] = A. baumannii ATCC 19606, day 4, replicate 3
# [13] = A. baumannii ATCC 19606, day 4, replicate 4
# [14] = A. baumannii ATCC 19606, day 4, replicate 5
# [15] = A. baumannii ATCC 19606, day 4, replicate 6
structure (smiles),measurement,setting,value
CC[C@H](C)[C@H](NC(=O)[C@H](CO)NC(=O)[C@H](CCCNC(=N)N)NC(=O)[C@H](C)NC(=O)[C@H](Cc1c[nH]cn1)NC(=O)[C@H](CC(C)C)NC(=O)[C@H](CS)NC(=O)[C@H](C)NC(=O)[C@@H](N)CCCNC(=N)N)C(=O)N[C@@H](C)C(=O)N[C@@H](CCCNC(=N)N)C(=O)N[C@@H](CC(C)C)C(=O)N[C@@H](Cc1c[nH]cn1)C(=O)N[C@@H](CCCCN)C(=O)N[C@@H](CCCNC(=N)N)C(=O)N[C@@H](Cc1c[nH]c2ccccc12)C(=O)N[C@@H](CCCNC(=N)N)C(=O)N1CCC[C@H]1C(=O)N[C@H](C(=O)N[C@@H](Cc1c[nH]cn1)C(=O)N[C@@H](CCC(N)=O)C(=O)NCC(=O)N[C@@H](CC(C)C)C(=O)NCC(=O)N[C@@H](CC(C)C)C(=O)N[C@@H](CCCCN)C(=O)O)C(C)C [Mammuthusin-2] (H-RACLHARSIARLHKRWRPVHQGLGLK-OH; N-terminus and C-terminus assumed),"bacterial count, skin abscess (Panel 6b)",A. baumannii ATCC 19606 [1]; [4],600000
same,"bacterial count, skin abscess (Panel 6b)",A. baumannii ATCC 19606 [1]; [5],400000
same,"bacterial count, skin abscess (Panel 6b)",A. baumannii ATCC 19606 [1]; [6],800000
same,"bacterial count, skin abscess (Panel 6b)",A. baumannii ATCC 19606 [1]; [7],200000
same,"bacterial count, skin abscess (Panel 6b)",A. baumannii ATCC 19606 [1]; [8],4000000
same,"bacterial count, skin abscess (Panel 6b)",A. baumannii ATCC 19606 [1]; [9],1e+007
same,"bacterial count, skin abscess (Panel 6b)",A. baumannii ATCC 19606 [1]; [10],200000
same,"bacterial count, skin abscess (Panel 6b)",A. baumannii ATCC 19606 [1]; [11],200000
same,"bacterial count, skin abscess (Panel 6b)",A. baumannii ATCC 19606 [1]; [12],800000
same,"bacterial count, skin abscess (Panel 6b)",A. baumannii ATCC 19606 [1]; [13],1200000
same,"bacterial count, skin abscess (Panel 6b)",A. baumannii ATCC 19606 [1]; [14],20000
same,"bacterial count, skin abscess (Panel 6b)",A. baumannii ATCC 19606 [1]; [15],20000
same,"Anti-infective activity in skin abscess model, in words","A. baumannii ATCC 19606 [1]; single dose at MIC, compared with untreated control and polymyxin B, n = 6",inhibited the proliferation of the infection for up to 4 days after treatment
same,Active or Inactive,"[2]; Supplementary Dataset 2, against the 11 pathogens tested",Active
same,MIC (lowest MIC value in the antimicrobial activity assays),"[2]; Supplementary Table 17, lowest MIC among the strains tested",32 µM
same,"bacterial count, thigh infection (Panel 6d)",A. baumannii ATCC 19606 [3]; [4],800000
same,"bacterial count, thigh infection (Panel 6d)",A. baumannii ATCC 19606 [3]; [5],2e+007
same,"bacterial count, thigh infection (Panel 6d)",A. baumannii ATCC 19606 [3]; [6],4000000
same,"bacterial count, thigh infection (Panel 6d)",A. baumannii ATCC 19606 [3]; [7],2000000
same,"bacterial count, thigh infection (Panel 6d)",A. baumannii ATCC 19606 [3]; [8],1e+007
same,"bacterial count, thigh infection (Panel 6d)",A. baumannii ATCC 19606 [3]; [9],4000000
same,"bacterial count, thigh infection (Panel 6d)",A. baumannii ATCC 19606 [3]; [10],800000
same,"bacterial count, thigh infection (Panel 6d)",A. baumannii ATCC 19606 [3]; [11],600000
same,"bacterial count, thigh infection (Panel 6d)",A. baumannii ATCC 19606 [3]; [12],6000000
same,"bacterial count, thigh infection (Panel 6d)",A. baumannii ATCC 19606 [3]; [13],6000000
same,"bacterial count, thigh infection (Panel 6d)",A. baumannii ATCC 19606 [3]; [14],2000000
same,"bacterial count, thigh infection (Panel 6d)",A. baumannii ATCC 19606 [3]; [15],4000000
